Experimental data reported in patent US8242166B2, “C(10) ethyl ester and C(10) cyclopropyl ester substituted taxanes” (Florida State University Research Foundation, Inc., priority 2008, dated 2012).
Several values for one entry are separate records, joined by “and”; a condition that tells them apart may be missing. Equal entries are not always repeated. Where two headings read alike, the source gives them in different places.

Tests used:
[1] = test system: HOP-18; assay: MTT cytotoxicity (IC50), HOP-18; format: cell-based; details: Homo sapiens, 72 h, read-out: IN Vitro IC50 (nm) HOP18
Method: (§1) Compound 17932 was tested in four of these cell lines, while the remaining compounds were tested in all of these cell lines. All cell lines were maintained in RPMI-1640 tissue culture medium (TCM, supplemented with antibiotics and 10% fetal bovine serum) and cultured at 37° C. in humidified air containing 5% CO2. To assess the antiproliferative effects of the test compounds, 172 μL of tumor cell suspension (1.45×10^4 cells/ml) were added to each well of a 96-well plate and incubated for 24 h at 37° C. in 5% CO2 in air to allow cells to adhere. Seven 2-fold drug dilutions in TCM/DMSO were performed in triplicate in separate 96-well plates and 28 μL was transferred to the wells containing tumor cells (200 μL final volume/0.1% DMSO). Plates were incubated for 72 h and cell viability was determined by adding 50 μL of warm TCM containing 5 mg/mL MTT (3-[4,5-dimethylthiazol-2-yl]-2,5-diphenyltetrazolium bromide) to each well and incubating for 1 h at 37° C. Plates were processed and the absorbances of the resulting solutions were measured by a plate reader at 570 nm. […] (GraphPad Prism version 4.00 for Windows). Studies were conducted by Taxolog, Inc., Tallahassee, Fla.

[2] = test system: human HT29 colon carcinoma xenografts
[3] = test system: OVCAR5; assay: MTT cytotoxicity (IC50), OVCAR5; format: cell-based; details: Homo sapiens, OVCAR-5, 72 h, read-out: IN Vitro IC50 (nm) OVCAR5
Method: as §1

[4] = test system: HCT116; assay: MTT cytotoxicity (IC50), HCT116; format: cell-based; details: Homo sapiens, HCT-116, 72 h, read-out: IN Vitro IC50 (nm) HCT116
Method: as §1, with “All” for “Compound 17932 was tested in four of these cell lines, while the remaining compounds were tested in all of these cell lines. All”

[5] = test system: human BxPC-3 human pancreatic xenograft; format: in vivo; details: for T/C % values: from D33
Method: Method: Twenty four (24) hours after a whole body irradiation with a γ-source (7.0 Gy, Co^60, INRA, Dijon, France) 20×10^6 BxPC-3 cells in 200 μl of RPMI 1640 culture medium were subcutaneously injected in the right flank of 8 female Nude rats to generate tumor material. When the tumor size reaches approximately 1,000 mm^3, the tumors were surgically excised for implantation into recipient Nude female rats. Twenty four (24) hours after a whole body irradiation (7.0 Gy, Co^60, INRA, Dijon, France), fresh BxPC-3 tumor fragments were sc implanted in the right flank of 52 Nude female rats (1 fragment/rat) at D0 using surgical pliers and skin was stitched. The antitumor activity study was started at D21 when the mean tumor volume has reached 321.6±131.2 mm^3. Before the start of treatments, 42 tumor bearing rats out of 52 grafted were randomized into 7 groups of 6 animals.
[…]. At 7 mg/kg/inj, only two treatments were performed at D21 and D42 due to severe body weight loss.

[6] = test system: human A375 melanoma xenograft; assay: A375 xenograft study e209 (Example 27); details: 25 mg/kg iv qwk × 3
Method: The endpoint was a tumor volume of 2,000 mm^3 and the study was terminated on Day 56. Efficacy was assessed by tumor growth delay and the number of partial and complete regressions. Animals with a CR that persisted through Day 56 were classified as long-term tumor-free survivors (TFS).

[7] = test system: HT29 human tumor xenografts; assay: HT29 xenograft study e133 (Example 24); format: in vivo, nude mice; details: 30 mg/kg iv Q7d × 3; n=6
Method: […]. Control mice received the 5% E 95% L-II vehicle q4d×4. A positive reference group received i.v. therapy with compound 2, at 30 mg/kg once weekly for three weeks (q7d×3), in a vehicle of 7.5% ethanol and 7.5% Tween® 80 in 5% dextrose in water. […] The endpoint volume for tumor growth was 1,000 mm^3. […].

[8] = test system: A549; assay: MTT cytotoxicity (IC50), A549; format: cell-based; details: Homo sapiens, 72 h, read-out: IN Vitro IC50 (nm) A549
Method: as §1

[9] = test system: human MX-1 breast carcinoma; assay: MX1 xenograft study e219R1, i.v. single dose (Example 17)

## CC(=O)O[C@@]12CO[C@@H]1C[C@H](O)[C@@]1(C)C(=O)[C@H](O)C3=C(C)[C@@H](OC(=O)[C@H](O)[C@@H](NC(=O)OC(C)(C)C)c4ccccc4)C[C@@](O)([C@@H](OC(=O)c4ccccc4)[C@H]21)C3(C)C [Docetaxel, docetaxel, reference compound]
[1]
  IC50: 3.4 nM
[2]; 25 mg/kg q7d×3, six mice
  LTTFS: one
  PR responses: 4
[2]; mouse, in vivo
  Number of Death NTR: 0
  Number of Death TR: 0
[3]
  IC50: 1.1 nM
[4]
  IC50: 0.9 nM
[5]; 5 mg/kg/inj IV, 6 rats per group
  rats found dead: 2
[5]; 5 mg/kg/inj IV, 6 rats per group, listed as TXT
  rats found dead: two
[5]; 5 mg/kg/inj IV, at D60
  optimal T/C % value: 3.8%
[5]; 5 mg/kg/inj IV, at D81 (final sacrifice), 6 rats per group
  animals with complete tumor regression: one
[5]; 5 mg/kg/inj IV
  T/C % values: lower than 42%
[5]; 7 mg/kg/inj IV, 6 rats per group
  rats found dead: 2
[5]; 7 mg/kg/inj IV, 6 rats per group, listed as TXT
  rats found dead: Two
[5]; 7 mg/kg/inj IV, at D56
  optimal T/C % value: 12.3%
[5]; 7 mg/kg/inj IV
  T/C % values: lower than 42%
[5]; repeated IV injections at 5 and 7 mg/kg/inj
  antitumor activity: marked antitumor activity
[6]
  BW Nadir: −4.0% (25)
[6]; n=6
  CR (complete regression): 0
  NTR NTRm: 0
  PR (partial regression): 0
  TFS (tumor-free survivor): 0
  TR (treatment-related death): 0
[6]; vehicle ET
  % TGD: 49.06%
  Median TTE: 26.92 days
[6]; vehicle ET, listed as 2
  T-C (tumor growth delay): 8.9 days and 8.86 days
[7]
  # Death NTR: 0
  # Death TR: 0
[8]
  IC50: 1.3 nM
[9]; 25 mg/kg iv qd × 1
  % TGD: 89.79%
  BW Nadir: −10.2% (5)
  MTV (n), Day 60: 0.00 (5) mm^3
  Median TTE: 61 days
  T-C: 28.86 days
[9]; 25 mg/kg iv qd × 1, n=5
  CR (complete regression): 5
  NTR (non-treatment-related death): 0
  PR (partial regression): 0
  TFS (tumor-free survivor): 4
  TR (treatment-related death): 0
[9]; 25 mg/kg qd×1
  group mean weight loss: 10.2%
[9]; 25 mg/kg qd×1, n=5
  transient CR: 1
